Counter-ions that a name gives are not always drawn. Like-named read-outs stand apart in the source and are kept apart here.
Tests used:
[1] = in vivo; conditions: mouse, in vivo, po
Procedure: (§1) Groups of five Carworth CF1 S female mice, 16-20 g each, were fasted 16-22 hours before use. The mice were put in opaque plastic "shoe-box" cages 15-30 min. before injection, and then treated orally with 4, 12, 36, 108 and 324 mg/kg of the compound to be tested as a 13 mg/ml solution in 1% aqueous distilled water solution of methylcellulose (Methocel®). Each dose was given in a standard volume of 0.45 ml. Observations were made at 0.5, 2 and 24 hours after dosing. ED50 values were calculated for each parameter including death (LD50). The ED50 and LD50 values are the doses at which 50% of the naimals would be expected to respond.
(§2) The mouse is placed on a stainless steel wire mesh screen (8 × 12 inches, 3 mesh per inch, 1/4 inch mesh openings) "shoe-box" lid (1 inch high) and is observed for normal activities, such as nose movements, head movements with apparent visual examination of the area, and/or walking around on the screen. Absence of or marked depression of these activities for 5 seconds constitutes loss of exploratory activity.
(§3) The mouse is picked up by the tail and placed on the screen with its head facing the observer. Bilateral eyelid closure of 50% or more two seconds after placement is considered ptosis.
(§4) The mouse is placed with its front paws on the edge of a stainless steel "shoe-box" cover, 1 inch high, covered with adhesive tape. Failure to remove both paws from the cover's edge within 5 seconds constitutes catatonia.
(§5) The observer gently strokes the abdominal musculature of the mouse with thumb and forefinger. Flaccidity (or rarely, tenseness) is recorded.
(§6) The mouse is gently swung by the tail toward a horizontal 12 gauge wire tautly stretched 25 cm above the bench. After the mouse grasps the wire with its forepaws, its posterior end is held directly below the wire. A normal mouse grasps the wire with its forepaws and immediately lifts its hind limbs to the wire. Failure to grasp the wire with the forepaws in both trials constitutes loss of the grip reflex; failure to lift the hind limbs to grasp the wire with at least one hind paw within 5 seconds constitutes loss of the lift reflex.
(§7) The mouse is placed on the bar 10-20 cm horizontally and 9 cm vertically from a Galton whistle adjusted for 13 kc (5 mm on the whistle scale) and is subjected to several short bursts of sound.
(§8) An effective tranquilizer should induce little or no tremor response. […] Tremors include fine or coarse and intermittent or continuous tremors.

[2] = test system: female white mice; assay: animal or person; conditions: Mus musculus, po, oral, mice
Procedure: as §1, §2, §3, §4, §5, §6, §7, §8

[3] = test system: phenylquinone-induced writhing; assay: Phenylquinone writhing test (analgesia); assay type: in vivo, mouse (Carworth CF1 S female); conditions: Mus musculus
From the text: This mouse test is predictive of analgesic response in humans. [E. Siegmund, R. Cadmus and G. Lee, Proc. Soc.
ED50 values were obtained graphically from the data.

[4] = read-out: Catatonia ED50, Table III
[5] = read-out: Exploratory Loss Visual ED50, Table III
[6] = read-out: Muscle Tone ED50, Table III
[7] = read-out: Ptosis ED50, Table III
[8] = read-out: Reflexes Grip ED50, Table III
[9] = read-out: Reflexes Lift ED50, Table III
[10] = read-out: Reflexes Pinna ED50, Table III
[11] = read-out: Catatonia ED50, Table 1
[12] = read-out: Exploratory Loss Visual ED50, Table 1
[13] = read-out: Muscle Tone ED50, Table 1
[14] = read-out: Reflexes Grip ED50, Table 1
[15] = read-out: Reflexes Lift ED50, Table 1
[16] = read-out: Reflexes Pinna ED50, Table 1

Structure (SMILES): ON=Cc1ccc2c(c1)[C@]13C[C@H]2c2ccccc2[C@H]1CN(CC1CCCC1)C3 (relative stereo) [Example 83, 5-Formyl-2-cyclopentylmethyl-2,3,8,12b-tetrahydro-1H-3a,8-methanodibenzo[3,4:6,7]cyclohepta[1,2-c]pyrrole Oxime Hydrochloride]
- LD50 at 24 h [1]: > 324 mg/kg
- ED50 [2, 4]: 36 mg/kg
- ED50 [2, 5]: 20 mg/kg
- ED50 [2, 6]: 36 mg/kg
- ED50 [2, 7]: 36 mg/kg
- ED50 [2, 8]: > 324 mg/kg
- ED50 [2, 9]: 60 mg/kg
- ED50 [2, 10]: 20 mg/kg
- ED50 ([3]; po, Table III, mice): 2.7 mg/kg

Structure (SMILES): c1ccc(CCCCN2C[C@@H]3c4ccccc4[C@@H]4C[C@@]3(C2)c2ccccc24)cc1 (relative stereo) [Example 61, 2-(4-Phenylbutyl)-2,3,8,12b-tetrahydro-1H-3a,8-methanodibenzo[3,4:6,7]cyclohepta[1,2-c]pyrrole]
- LD50 at 24 h [1]: > 324 mg/kg
- ED50 [2, 11]: 20 mg/kg
- ED50 [2, 12]: 20 mg/kg
- ED50 [2, 13]: 20 mg/kg
- ED50 ([2]; read-out: Ptosis ED50, Table 1): 36 mg/kg
- ED50 [2, 14]: > 324 mg/kg
- ED50 [2, 15]: 60 mg/kg
- ED50 [2, 16]: 36 mg/kg
- ED50 ([3]; po, Table 1, mice): 5.6 mg/kg

Structure (SMILES): c1ccc2c(c1)C1CC3(CN(CC4CC4)CC23)c2ccccc21 (centres unmarked) [Example 6, 2-Cyclopropylmethyl-2,3,8,12b-tetrahydro-1H-3a,8-methanodibenzo[3,4:6,7]cyclohepta[1,2-c]pyrrole]
- LD50 at 24 h [1]: 300 mg/kg
- ED50 ([1]; Tremors ED50, Table 1, mice): 100 mg/kg
- ED50 [2, 11]: 20 mg/kg
- ED50 [2, 12]: 20 mg/kg
- ED50 [2, 13]: 12 mg/kg
- ED50 ([2]; read-out: Ptosis ED50, Table 1): 20 mg/kg
- ED50 [2, 14]: 100 mg/kg
- ED50 [2, 15]: 20 mg/kg
- ED50 [2, 16]: 7 mg/kg
- ED50 ([3]; Table 1, oral, mice): 4.5 mg/kg

Structure (SMILES): C#CCN1CC2c3ccccc3C3CC2(C1)c1ccccc13 (centres unmarked) [Example 18, 2-Propargyl-2,3,8,12b-tetrahydro-1H-3a,8-methanodibenzo[3,4:6,7]cyclohepta[1,2-c]pyrrole]
- LD50 at 24 h [1]: > 324 mg/kg
- ED50 ([1]; Tremors ED50, Table 1, mice): > 324 mg/kg
- ED50 [2, 11]: 100 mg/kg
- ED50 [2, 12]: 200 mg/kg
- ED50 [2, 13]: 300 mg/kg
- ED50 ([2]; read-out: Ptosis ED50, Table 1): 200 mg/kg
- ED50 [2, 14]: > 324 mg/kg
- ED50 [2, 15]: 200 mg/kg
- ED50 [2, 16]: > 324 mg/kg
- ED50 ([3]; Table 1, oral, mice): > 135 mg/kg

Structure (SMILES): CNC(=O)ON=Cc1ccc2c(c1)[C@]13C[C@H]2c2ccccc2[C@H]1CN(CC1CCCC1)C3 (relative stereo) [Example 84, 5-Formyl-2-cyclopentylmethyl-2,3,8,12b-tetrahydro-1H-3a,8-methanodibenzo[3,4:6,7]cyclohepta[1,2-c]pyrrole Oxime-O-(N-methylcarbamate) Hydrochloride]
- LD50 at 24 h [1]: > 324 mg/kg
- ED50 [2, 4]: 100 mg/kg
- ED50 [2, 5]: 60 mg/kg
- ED50 [2, 6]: 100 mg/kg
- ED50 [2, 7]: 36 mg/kg
- ED50 [2, 8]: > 324 mg/kg
- ED50 [2, 9]: 200 mg/kg
- ED50 [2, 10]: 100 mg/kg
- ED50 ([3]; Table III, oral, mice): < 130 mg/kg

Structure (SMILES): [N-]=[N+]=Nc1ccc2c(c1)[C@]13C[C@H]2c2ccccc2[C@H]1CN(CC1CCCC1)C3 (relative stereo) [Example 82, 5-Azido-2-cyclopentylmethyl-2,3,8,12b-tetrahydro-1H-3a,8-methanodibenzo[3,4:6,7]cyclohepta[1,2-c]-pyrrole]
- LD50 at 24 h [1]: > 324 mg/kg
- ED50 [2, 4]: 60 mg/kg
- ED50 [2, 5]: 7 mg/kg
- ED50 [2, 6]: 20 mg/kg
- ED50 [2, 7]: 7 mg/kg
- ED50 [2, 8]: > 324 mg/kg
- ED50 [2, 9]: 60 mg/kg
- ED50 [2, 10]: 36 mg/kg
- ED50 ([3]; po, Table III, mice): < 130 mg/kg

Structure (SMILES): CC(C)N1C[C@@H]2c3ccccc3[C@@H]3C[C@@]2(C1)c1ccccc13 (relative stereo) [Example 49, 2-Isopropyl-2,3,8,12b-tetrahydro-1H-3a, 8-methanodibenzo[3,4:6,7]cyclohepta[1,2-c]pyrrole]
- LD50 at 24 h [1]: 200 mg/kg
- ED50 ([1]; Tremors ED50, Table 1, mice): > 324 mg/kg
- ED50 [2, 11]: 60 mg/kg
- ED50 [2, 12]: 60 mg/kg
- ED50 [2, 13]: 7 mg/kg
- ED50 ([2]; read-out: Ptosis ED50, Table 1): 12 mg/kg
- ED50 [2, 14]: 200 mg/kg
- ED50 [2, 15]: 36 mg/kg
- ED50 [2, 16]: 20 mg/kg
- ED50 ([3]; Table 1, oral, mice): 10.8 mg/kg

Structure (SMILES): c1ccc2c(c1)C1CC3(CN(CCCC4CCCC4)CC23)c2ccccc21 (centres unmarked) [Example 24, 2-(3-Cyclopentylpropyl)-2,3,8,12b-tetrahydro-1H-3a,8-methanodibenzo[3,4:6,7]cyclohepta[1,2-c]pyrrole]
- ED50 [1]: > 324 mg/kg
- LD50 at 24 h [1]: > 324 mg/kg
- ED50 [2, 11]: 7 mg/kg
- ED50 [2, 12]: 7 mg/kg
- ED50 [2, 14]: > 324 mg/kg
- ED50 [2, 15]: 17 mg/kg
- ED50 [2, 16]: 17 mg/kg
- ED50 ([3]; po, Table 1, mice): 6 mg/kg

Structure (SMILES): CC(C)CCN1C[C@@H]2c3ccccc3[C@@H]3C[C@@]2(C1)c1ccccc13 (relative stereo) [Example 60, 2-(3-Methylbutyl)-2,3,8,12b-tetrahydro-1H-3a, 8-methanodibenzo[3,4:6,7]cyclohepta[1,2-c]pyrrole]
- LD50 at 24 h [1]: > 324 mg/kg
- ED50 [2, 11]: 20 mg/kg
- ED50 [2, 12]: 20 mg/kg
- ED50 [2, 13]: 20 mg/kg
- ED50 ([2]; read-out: Ptosis ED50, Table 1): 36 mg/kg
- ED50 [2, 14]: 200 mg/kg
- ED50 [2, 15]: 60 mg/kg
- ED50 [2, 16]: 36 mg/kg
- ED50 ([3]; Table 1, oral, mice): 15 mg/kg

Structure (SMILES): c1ccc([C@@H]2C[C@H]2CN2CC3c4ccccc4C4CC3(C2)c2ccccc24)cc1 (relative stereo) [Example 55, 2-(trans-2-Phenylcyclopropylmethyl)-2,3,8,12 b-tetrahydro-1H-3a,8-methanodibenzo[3,4:6,7]cyclohepta[1,2-c]pyrrole]
- ED50 [1]: > 324 mg/kg
- LD50 at 24 h [1]: > 324 mg/kg
- ED50 [2, 11]: 200 mg/kg
- ED50 [2, 12]: 100 mg/kg
- ED50 [2, 13]: 100 mg/kg
- ED50 ([2]; read-out: Ptosis ED50, Table 1): 36 mg/kg
- ED50 [2, 14]: > 324 mg/kg
- ED50 [2, 15]: 200 mg/kg
- ED50 [2, 16]: 200 mg/kg
- ED50 ([3]; po, Table 1, mice): 48 mg/kg

Structure (SMILES): C1=CCC(CN2CC3c4ccccc4C4CC3(C2)c2ccccc24)=CC1 (centres unmarked) [Example 28, 2-(1,4-Cyclohexadienylmethyl)-2,3,8,12b-tetrahydro-1H-3a,8-methanodibenzo[3,4:6,7]cyclohepta[1,2-c]pyrrole]
- ED50 [1]: > 324 mg/kg
- LD50 at 24 h [1]: > 324 mg/kg
- ED50 [2, 11]: 24 mg/kg
- ED50 [2, 12]: 29 mg/kg
- ED50 [2, 13]: 37 mg/kg
- ED50 ([2]; read-out: Ptosis ED50, Table 1): 17 mg/kg
- ED50 [2, 14]: > 324 mg/kg
- ED50 [2, 15]: 57 mg/kg
- ED50 [2, 16]: 32 mg/kg
- ED50 ([3]; po, Table 1, mice): 8.6 mg/kg

Structure (SMILES): C=CCC(O)c1ccc2c(c1)[C@]13C[C@H]2c2ccccc2[C@H]1CN(CC1CCCC1)C3 (some centres unmarked) [Example 75, 5-[1-(1-Hydroxy-3-butenyl)]-2-cyclopentylmethyl-2,3,8,12b-tetrahydro-1H-3a,8-methanodibenzo[3,4:6,7]cyclohepta[1,2-c]pyrrole Hydrochloride]
- LD50 at 24 h [1]: > 324 mg/kg
- ED50 [2, 4]: 36 mg/kg
- ED50 [2, 5]: 60 mg/kg
- ED50 [2, 6]: 36 mg/kg
- ED50 [2, 7]: 12 mg/kg
- ED50 [2, 8]: 200 mg/kg
- ED50 [2, 9]: 20 mg/kg
- ED50 [2, 10]: 7 mg/kg
- ED50 ([3]; po, Table III, mice): 11 mg/kg

Structure (SMILES): C1=C(CN2CC3c4ccccc4C4CC3(C2)c2ccccc24)CCC1 (centres unmarked) [Example 21, 2-(1-Cyclopentenylmethyl)-2,3,8,12b-tetrahydro-1H-3a,8-methanodibenzo[3,4:6,7]cyclohepta[1,2-c]pyrrole]
- ED50 [1]: > 324 mg/kg
- LD50 at 24 h [1]: > 324 mg/kg
- ED50 [2, 11]: 20 mg/kg
- ED50 [2, 12]: 7 mg/kg
- ED50 [2, 13]: 36 mg/kg
- ED50 ([2]; read-out: Ptosis ED50, Table 1): 7 mg/kg
- ED50 [2, 14]: 300 mg/kg
- ED50 [2, 15]: 36 mg/kg
- ED50 [2, 16]: 20 mg/kg
- ED50 ([3]; po, Table 1, mice): 2.9 mg/kg

Structure (SMILES): c1ccc2c(c1)[C@@H]1C[C@@]3(CN(CC4CCCC4)C[C@H]23)c2ccccc21 (relative stereo) [Cyclopentylmethyl (free base), 2-Cyclopentylmethyl-2,3,8,12b-tetrahydro-1H-3a,8-methanodibenzo[3,4:6,7]cyclohepta[1,2-c]pyrrole]
- LD50 at 24 h [1]: > 324 mg/kg
- ED50 [2, 11]: 7 mg/kg
- ED50 [2, 12]: < 3 mg/kg
- ED50 [2, 13]: < 3 mg/kg
- ED50 ([2]; read-out: Ptosis ED50, Table 1): < 3 mg/kg
- ED50 [2, 14]: 260 mg/kg
- ED50 [2, 15]: 4.5 mg/kg
- ED50 [2, 16]: < 3 mg/kg
- ED50 ([3]; po, Table 1, mice): < 130 mg/kg

From patent US4088772A, “Methanodibenzocycloheptapyrroles” (E. I. Du Pont de Nemours and Company, priority 1975, dated 1978)
